Tested on: 292921-168-R-J2-PDC complex spheroid viability
Assay: Anticancer human tumor 292921-168-R-J2-PDC patient-derived pancreatic carcinoma cell line growth inhibition
Conditions: for IC50: curve of first compound; for viability, T/C: stronger effect = lower value
Outline: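 Multicellular complex spheroids of tumor cells with human endothelial cells (HUVEC) and mesenchymal stem cells; the LSD1 inhibitor iadademstat was combined with standard-of-care or investigational agents. Top concentration at or near clinical Cmax, half-log dilutions; final DMSO ≤0.25%.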

[1] = second compound 0.1 µM, first compound 0.0316 µM
[2] = second compound 0.1 µM, first compound 0.1 µM
[3] = second compound 0.1 µM, first compound 0.316 µM
[4] = second compound 0.1 µM, first compound 1 µM
[5] = second compound 0.316 µM, first compound 0.0316 µM
[6] = second compound 0.316 µM, first compound 0.1 µM
[7] = second compound 0.316 µM, first compound 0.316 µM
[8] = second compound 0.316 µM, first compound 1 µM
[9] = second compound 1 µM, first compound 0.0316 µM
[10] = second compound 1 µM, first compound 0.1 µM
[11] = second compound 1 µM, first compound 0.316 µM
[12] = second compound 1 µM, first compound 1 µM
[13] = second compound 3.16 µM, first compound 0.0316 µM
[14] = second compound 3.16 µM, first compound 0.1 µM
[15] = second compound 3.16 µM, first compound 0.316 µM
[16] = second compound 3.16 µM, first compound 1 µM
[17] = second compound 10 µM, first compound 0.0316 µM
[18] = second compound 10 µM, first compound 0.1 µM
[19] = second compound 10 µM, first compound 0.316 µM
[20] = second compound 10 µM, first compound 1 µM
[21] = second compound 0.1 µM, first compound 0.00949 µM
[22] = second compound 0.1 µM, first compound 0.03 µM
[23] = second compound 0.1 µM, first compound 0.0949 µM
[24] = second compound 0.1 µM, first compound 0.3 µM
[25] = second compound 0.316 µM, first compound 0.00949 µM
[26] = second compound 0.316 µM, first compound 0.03 µM
[27] = second compound 0.316 µM, first compound 0.0949 µM
[28] = second compound 0.316 µM, first compound 0.3 µM
[29] = second compound 1 µM, first compound 0.00949 µM
[30] = second compound 1 µM, first compound 0.03 µM
[31] = second compound 1 µM, first compound 0.0949 µM
[32] = second compound 1 µM, first compound 0.3 µM
[33] = second compound 3.16 µM, first compound 0.00949 µM
[34] = second compound 3.16 µM, first compound 0.03 µM
[35] = second compound 3.16 µM, first compound 0.0949 µM
[36] = second compound 3.16 µM, first compound 0.3 µM
[37] = second compound 10 µM, first compound 0.00949 µM
[38] = second compound 10 µM, first compound 0.03 µM
[39] = second compound 10 µM, first compound 0.0949 µM
[40] = second compound 10 µM, first compound 0.3 µM
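Further: seven day compound exposure before luminescent viability read.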
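Wherever viability, T/C is given: 100% = DMSO vehicle control wells.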

CC1COCCN1c1cc(C2(S(C)(=N)=O)CC2)nc(-c2ccnc3[nH]ccc23)n1 (stereo not given) + NC1CC1c1ccc(-c2cccc(O)c2)cc1
IC50 (second compound 0.1 µM): 368 nM | IC50 (second compound 0.316 µM): 318 nM | IC50 (second compound 1 µM): 293 nM | IC50 (second compound 3.16 µM): 253 nM | IC50 (second compound 10 µM): 104 nM | viability, T/C [1]: 88.3% | viability, T/C [2]: 82% | viability, T/C [3]: 51% | viability, T/C [4]: 28.8% | viability, T/C (second compound 0.1 µM, first compound 3.16 µM): 15.2% | viability, T/C (second compound 0.1 µM, first compound 10 µM): 11.4% | viability, T/C [5]: 66.8% | viability, T/C [6]: 58.8% | viability, T/C [7]: 51.8% | viability, T/C [8]: 26.5% | viability, T/C (second compound 0.316 µM, first compound 3.16 µM): 15.4% | viability, T/C (second compound 0.316 µM, first compound 10 µM): 11.4% | viability, T/C [9]: 63.1% | viability, T/C [10]: 61.6% | viability, T/C [11]: 48.9% | viability, T/C [12]: 25.5% | viability, T/C (second compound 1 µM, first compound 3.16 µM): 13.2% | viability, T/C (second compound 1 µM, first compound 10 µM): 11.5% | viability, T/C [13]: 59.4% | viability, T/C [14]: 63.6% | viability, T/C [15]: 46.3% | viability, T/C [16]: 23.2% | viability, T/C (second compound 3.16 µM, first compound 3.16 µM): 13.7% | viability, T/C (second compound 3.16 µM, first compound 10 µM): 11.8% | viability, T/C [17]: 50.9% | viability, T/C [18]: 53.3% | viability, T/C [19]: 39.6% | viability, T/C [20]: 27.1% | viability, T/C (second compound 10 µM, first compound 3.16 µM): 12.2% | viability, T/C (second compound 10 µM, first compound 10 µM): 11.4%

CCN(c1cc(-c2ccc(CN3CCOCC3)cc2)cc(C(=O)NCc2c(C)cc(C)[nH]c2=O)c1C)C1CCOCC1 + NC1CC1c1ccc(-c2cccc(O)c2)cc1
IC50 (second compound 0.1 µM): 1080 nM | IC50 (second compound 0.316 µM): 1020 nM | IC50 (second compound 1 µM): 1100 nM | IC50 (second compound 3.16 µM): 1070 nM | IC50 (second compound 10 µM): 763 nM | viability, T/C [21]: 77.2% | viability, T/C [22]: 79.2% | viability, T/C [23]: 81.9% | viability, T/C [24]: 77.1% | viability, T/C (second compound 0.1 µM, first compound 0.949 µM): 53.5% | viability, T/C (second compound 0.1 µM, first compound 3 µM): 22.1% | viability, T/C [25]: 69.5% | viability, T/C [26]: 82.7% | viability, T/C [27]: 77.5% | viability, T/C [28]: 71.7% | viability, T/C (second compound 0.316 µM, first compound 0.949 µM): 51.9% | viability, T/C (second compound 0.316 µM, first compound 3 µM): 21.7% | viability, T/C [29]: 68.6% | viability, T/C [30]: 72% | viability, T/C [31]: 68.8% | viability, T/C [32]: 68.4% | viability, T/C (second compound 1 µM, first compound 0.949 µM): 54.5% | viability, T/C (second compound 1 µM, first compound 3 µM): 19.4% | viability, T/C [33]: 70.7% | viability, T/C [34]: 75.3% | viability, T/C [35]: 70.2% | viability, T/C [36]: 64.5% | viability, T/C (second compound 3.16 µM, first compound 0.949 µM): 54.1% | viability, T/C (second compound 3.16 µM, first compound 3 µM): 22.3% | viability, T/C [37]: 62.7% | viability, T/C [38]: 62.5% | viability, T/C [39]: 62.5% | viability, T/C [40]: 60.2% | viability, T/C (second compound 10 µM, first compound 0.949 µM): 47.6% | viability, T/C (second compound 10 µM, first compound 3 µM): 21.8%

Nc1ncn(C2CC(O)C(CO)S2)c(=O)n1 (stereo not given) + NC1CC1c1ccc(-c2cccc(O)c2)cc1
IC50 (second compound 0.1 µM): 61.3 nM | IC50 (second compound 0.316 µM): 53.1 nM | IC50 (second compound 1 µM): 50.3 nM | IC50 (second compound 3.16 µM): 40 nM | IC50 (second compound 10 µM): 36.5 nM | viability, T/C (second compound 0.1 µM, first compound 0.000949 µM): 83% | viability, T/C (second compound 0.1 µM, first compound 0.003 µM): 80.8% | viability, T/C [21]: 73.2% | viability, T/C [22]: 62.2% | viability, T/C [23]: 42.7% | viability, T/C [24]: 11.5% | viability, T/C (second compound 0.316 µM, first compound 0.000949 µM): 66.8% | viability, T/C (second compound 0.316 µM, first compound 0.003 µM): 73.2% | viability, T/C [25]: 63.9% | viability, T/C [26]: 63.1% | viability, T/C [27]: 37.3% | viability, T/C [28]: 13.3% | viability, T/C (second compound 1 µM, first compound 0.000949 µM): 63.9% | viability, T/C (second compound 1 µM, first compound 0.003 µM): 67% | viability, T/C [29]: 74.4% | viability, T/C [30]: 56.9% | viability, T/C [31]: 38.5% | viability, T/C [32]: 12.8% | viability, T/C (second compound 3.16 µM, first compound 0.000949 µM): 67.5% | viability, T/C (second compound 3.16 µM, first compound 0.003 µM): 66.8% | viability, T/C [33]: 62.6% | viability, T/C [34]: 55.1% | viability, T/C [35]: 36% | viability, T/C [36]: 12.8% | viability, T/C (second compound 10 µM, first compound 0.000949 µM): 55.2% | viability, T/C (second compound 10 µM, first compound 0.003 µM): 62% | viability, T/C [37]: 59.9% | viability, T/C [38]: 52.8% | viability, T/C [39]: 33.6% | viability, T/C [40]: 15.5%

O=C(C=Cn1cnc(-c2cc(C(F)(F)F)cc(C(F)(F)F)c2)n1)NNc1cnccn1 + NC1CC1c1ccc(-c2cccc(O)c2)cc1
IC50 (second compound 0.1 µM): 3.26 nM | IC50 (second compound 0.316 µM): 3.41 nM | IC50 (second compound 1 µM): < 3.16 nM | IC50 (second compound 3.16 µM): 4.57 nM | IC50 (second compound 10 µM): 3.76 nM | viability, T/C (second compound 0.1 µM, first compound 0.00316 µM): 48.3% | viability, T/C (second compound 0.1 µM, first compound 0.01 µM): 49.7% | viability, T/C [1]: 26.2% | viability, T/C [2]: 12.7% | viability, T/C [3]: 7.08% | viability, T/C [4]: 6.49% | viability, T/C (second compound 0.316 µM, first compound 0.00316 µM): 50% | viability, T/C (second compound 0.316 µM, first compound 0.01 µM): 45% | viability, T/C [5]: 22.3% | viability, T/C [6]: 11.1% | viability, T/C [7]: 7.37% | viability, T/C [8]: 6.26% | viability, T/C (second compound 1 µM, first compound 0.00316 µM): 47.8% | viability, T/C (second compound 1 µM, first compound 0.01 µM): 42.7% | viability, T/C [9]: 23% | viability, T/C [10]: 11.8% | viability, T/C [11]: 6.36% | viability, T/C [12]: 6.66% | viability, T/C (second compound 3.16 µM, first compound 0.00316 µM): 51.8% | viability, T/C (second compound 3.16 µM, first compound 0.01 µM): 46% | viability, T/C [13]: 24% | viability, T/C [14]: 14.4% | viability, T/C [15]: 7.81% | viability, T/C [16]: 7.38% | viability, T/C (second compound 10 µM, first compound 0.00316 µM): 50.7% | viability, T/C (second compound 10 µM, first compound 0.01 µM): 46.3% | viability, T/C [17]: 33.5% | viability, T/C [18]: 17.6% | viability, T/C [19]: 9.43% | viability, T/C [20]: 8.53%

From PubChem BioAssay AID1918934 (Molecular Pharmacology Branch, DTP, NCI, 2023)
